Results on two compounds are retold here after PMC8596838, “Xylose‐Configured Cyclophellitols as Selective Inhibitors for Glucocerebrosidase” (Chembiochem, 2021).

This test relates to glucosylsphingosine (GlcSph). Briefly: GlcSph levels in inhibitor treated zebrafish larvae (LC-MS). In kind it is in vivo, zebrafish (Danio rerio). The conditions noted are these: treated 103 hours from 8 hpf, n=2. The source says: We further investigated the affinity of 1 and 2 towards β‐D‐glucosidases in living animals using zebrafish (Danio rerio) embryos, which express both GBA and GBA2. Following exposure for 5 days, fish larvae were sacrificed and lysed, and cABPP with ABP 10 was used to detect residual active β‐D‐glucosidase molecules in the lysates and for IC50 determination. […] Aziridine compound 2 is also selective against GBA over GBA2, albeit with a narrower selectivity window (Figure 6A–C). […]
Figure 6 In vivo inhibitory effect of β‐D‐xylo‐configured compounds on β‐glucosidases in zebrafish (Danio rerio) larvae. […] Fluorescently labeled proteins were visualized after SDS‐PAGE, only GBA and GBA2 were assessed in zebrafish larvae model. (B) Apparent IC50 values towards β‐glucosidases (GBA and GBA2) were determined by the fluorescence quantification based on cABPP results. […] (D) GlcSph levels in zebrafish larvae were determined as described in experiment section, n=2 replicates.
Sphingolipid extraction and analysis by mass spectrometry in inhibitor treated zebrafish larvae: Zebrafish embryos at 8 hours post fertilization (hpf) were seeded in 96‐well plates (1 fish embryo/ well, 200 μL egg water/well) and treated with corresponding inhibitors in different concentration for 103 hours at 28.5 °C. […] Lipids were extracted and measured according to methods described previously.[48] […]

For the compound `O[C@@H]1[C@@H](O)[C@H](O)C[C@H]2O[C@@H]12` [compound 1, xylo‐cyclophellitol], the “GlcSph levels in zebrafish embryos” value is given as “increased levels of GlcSph”.
In the case of `O[C@@H]1[C@@H](O)[C@H](O)C[C@H]2N[C@@H]12` [compound 2, β‐D‐xylo‐Cyclophellitol aziridine] it was “increased levels of GlcSph”.
